Seven molecules from PubChem BioAssay (NCI) can be followed below.

Among the test systems are 786-0 renal; A549 NSCLC; ACHN renal; COLO 205 colon; DU-145 prostate; HCC-2998 colon; HT29 colon; LOX IMVI melanoma; MDA-MB-231 breast; MDA-MB-435; NCI-H23 lung; OVCAR-5 ovarian; PC-3 prostate; SK-OV-3 ovarian; SN12C renal; SNB-19 CNS; SR leukemia; U251 CNS; UACC-257 melanoma.
What all share (assay): NCI-60 cell line screen, 48 h

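1) Cells in 96-well plates. 2) Compound, 48 h, 5 concentrations. 3) Linear interpolation between surrounding doses. 4) Unreached endpoint = highest concentration. TGI marks complete inhibition of growth.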

Regarding `COC(=O)CC1C=CC(C)(OC)OO1` (stereo not drawn), the TGI in the test with 786-0 renal, in the test with A549 NSCLC, with ACHN renal, in the test with COLO 205 colon, in the test with DU-145 prostate and in the test with HCC-2998 colon was greater than 100 µM in each case. For the same molecule, the TGI in the test on HT29 colon, with LOX IMVI melanoma, with MDA-MB-231 breast, with MDA-MB-435, in the test with NCI-H23 lung and with OVCAR-5 ovarian was greater than 100 µM throughout. For the same molecule, the TGI in the test on PC-3 prostate, in the test with SK-OV-3 ovarian, in the test with SN12C renal, in the test on SNB-19 CNS, in the test with SR leukemia and in the test on U251 CNS was greater than 100 µM each time. Also, the TGI in the test on UACC-257 melanoma is greater than 100 µM.

Regarding `COC(=O)C1(C(=O)OC)C/C(C)=C(/C)SCCCS1`, the TGI in the test on 786-0 renal, with A549 NSCLC, with ACHN renal, with COLO 205 colon, in the test with DU-145 prostate and in the test on HCC-2998 colon was greater than 100 µM in each case. The TGI in the test on HT29 colon, in the test with LOX IMVI melanoma, with MDA-MB-231 breast, in the test with MDA-MB-435, in the test on NCI-H23 lung and in the test with OVCAR-5 ovarian was greater than 100 µM throughout. Also, the TGI in the test with PC-3 prostate, in the test on SK-OV-3 ovarian, with SN12C renal, with SNB-19 CNS, with SR leukemia and with U251 CNS was greater than 100 µM throughout. The molecule further showed a TGI in the test on UACC-257 melanoma greater than 100 µM.

Turning to `CNC(=S)N=Nc1c(O)n(CN2CCOCC2)c2ccc([N+](=O)[O-])cc12`, the TGI is 28.7 µM in the test on 786-0 renal; greater than 100 µM with A549 NSCLC; 35.3 µM in the test on ACHN renal; 91.3 µM in the test on COLO 205 colon; 27.3 µM in the test with DU-145 prostate; 45.1 µM in the test with HCC-2998 colon. The TGI in the test on HT29 colon is greater than 100 µM; in the test on LOX IMVI melanoma it was 31.8 µM; in the test on MDA-MB-231 breast, 25 µM; in the test on MDA-MB-435 it was greater than 100 µM; with NCI-H23 lung, 32.2 µM; in the test with OVCAR-5 ovarian, 70.5 µM. Further, the TGI in the test with PC-3 prostate was 57.5 µM; in the test on SK-OV-3 ovarian, 31.9 µM; in the test on SN12C renal, 38.5 µM; with SNB-19 CNS, 61.2 µM; in the test with SR leukemia, greater than 100 µM; with U251 CNS it was 37.6 µM. This molecule also gave a TGI with UACC-257 melanoma of 77.6 µM.

Take `O=C(O)C1C2C=CC(C2)C1c1ccccc1` (stereo not drawn): the TGI in the test on 786-0 renal, in the test with A549 NSCLC, in the test with ACHN renal, in the test with COLO 205 colon, in the test with DU-145 prostate and in the test on HCC-2998 colon was greater than 100 µM in each case. Besides, the TGI in the test with HT29 colon, with LOX IMVI melanoma, in the test on MDA-MB-231 breast, with MDA-MB-435, in the test on NCI-H23 lung and with OVCAR-5 ovarian was greater than 100 µM in each case. For the same molecule, the TGI with PC-3 prostate, in the test on SK-OV-3 ovarian, with SN12C renal, with SNB-19 CNS, in the test on SR leukemia and in the test with U251 CNS was greater than 100 µM in each case. In addition, the TGI in the test with UACC-257 melanoma is greater than 100 µM.

Regarding `S=C1SSC2N=CC=CC12` (stereo not drawn), the TGI was greater than 100 µM in the test on 786-0 renal; greater than 100 µM with A549 NSCLC; greater than 100 µM in the test with ACHN renal; greater than 100 µM in the test with COLO 205 colon; greater than 100 µM in the test with DU-145 prostate; 61.4 µM in the test on HCC-2998 colon. Further, the TGI in the test with HT29 colon is greater than 100 µM; in the test with LOX IMVI melanoma, greater than 100 µM; in the test with MDA-MB-231 breast it was greater than 100 µM; in the test on MDA-MB-435, 31.8 µM; in the test on NCI-H23 lung it was greater than 100 µM; in the test on OVCAR-5 ovarian, greater than 100 µM. Also, the TGI in the test with PC-3 prostate, in the test on SK-OV-3 ovarian, in the test with SN12C renal, with SNB-19 CNS, with SR leukemia and with U251 CNS was greater than 100 µM throughout. In addition, the TGI in the test with UACC-257 melanoma is greater than 100 µM.

Take `COC(=O)[C@H](Cc1c[nH]c2ccccc12)NC(=O)c1ccc(CNC(=O)/C(C)=C/c2ccccc2)cc1`: the TGI in the test with 786-0 renal is greater than 100 µM; in the test on A549 NSCLC, greater than 100 µM; in the test on ACHN renal, greater than 100 µM; with COLO 205 colon, 50.5 µM; in the test on DU-145 prostate, greater than 100 µM; in the test with HCC-2998 colon it was 73 µM. The TGI with HT29 colon was greater than 100 µM; with LOX IMVI melanoma it was greater than 100 µM; in the test with MDA-MB-231 breast it was 60.6 µM; in the test on MDA-MB-435, greater than 100 µM; with NCI-H23 lung, greater than 100 µM; with OVCAR-5 ovarian it was greater than 100 µM. For the same molecule, the TGI in the test with PC-3 prostate, in the test with SK-OV-3 ovarian, with SN12C renal, in the test with SNB-19 CNS, in the test on SR leukemia and in the test on U251 CNS was greater than 100 µM in each case. In the test with UACC-257 melanoma, this molecule had a TGI of 33.5 µM.

`Nc1nc(NCC2(CO)CC2)cc(=O)[nH]1`: the TGI with 786-0 renal, in the test with A549 NSCLC, in the test with ACHN renal, with COLO 205 colon, with DU-145 prostate and in the test with HCC-2998 colon was greater than 100 µM each time. The TGI with HT29 colon, in the test on LOX IMVI melanoma, in the test on MDA-MB-231 breast, in the test on MDA-MB-435, with NCI-H23 lung and in the test with OVCAR-5 ovarian was greater than 100 µM each time. In addition, the TGI in the test on PC-3 prostate, in the test on SK-OV-3 ovarian, in the test on SN12C renal, in the test with SNB-19 CNS, in the test on SR leukemia and in the test with U251 CNS was greater than 100 µM in each case. In the test with UACC-257 melanoma, this molecule had a TGI greater than 100 µM.
